Results from PubChem BioAssay (NCI).
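Here, GI50 denotes the concentration required for 50% inhibition of growth. TGI denotes the concentration required for complete inhibition of growth.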

How the values were obtained:
Experiment in all cases: inhibition of tumour cell growth, NCI panel, 384-well format
HOP-92 NSCLC = test system: HOP-92 NSCLC
SNB-75 CNS = test system: SNB-75 CNS
CCRF-CEM leukemia = test system: CCRF-CEM leukemia
NCI-H226 lung = test system: NCI-H226 lung
HOP-62 NSCLC = test system: HOP-62 NSCLC
RPMI-8226 leukemia = test system: RPMI-8226 leukemia
HL-60(TB) leukemia = test system: HL-60(TB) leukemia
SK-OV-3 ovarian = test system: SK-OV-3 ovarian
786-0 renal = test system: 786-0 renal
UO-31 renal = test system: UO-31 renal
UACC-62 melanoma = test system: UACC-62 melanoma
NCI-H23 lung = test system: NCI-H23 lung
SW-620 colon = test system: SW-620 colon
HS 578T breast = test system: HS 578T breast
MOLT-4 leukemia = test system: MOLT-4 leukemia
SK-MEL-2 melanoma = test system: SK-MEL-2 melanoma
A549 NSCLC = test system: A549 NSCLC
SN12C renal = test system: SN12C renal
KM12 colon = test system: KM12 colon
DU-145 prostate = test system: DU-145 prostate
SK-MEL-28 melanoma = test system: SK-MEL-28 melanoma
SF-539 CNS = test system: SF-539 CNS
U251 glioblastoma = test system: U251 glioblastoma
NCI-H460 NSCLC = test system: NCI-H460 NSCLC
M14 melanoma = test system: M14 melanoma
MCF7 breast = test system: MCF7 breast
NCI-H322M lung = test system: NCI-H322M lung
IGROV1 ovarian = test system: IGROV1 ovarian
EKVX NSCLC = test system: EKVX NSCLC
MALME-3M melanoma = test system: MALME-3M melanoma
MDA-MB-231 breast = test system: MDA-MB-231 breast
HCC-2998 colon = test system: HCC-2998 colon
PC-3 prostate = test system: PC-3 prostate
OVCAR-5 ovarian = test system: OVCAR-5 ovarian
COLO 205 colon = test system: COLO 205 colon
SK-MEL-5 melanoma = test system: SK-MEL-5 melanoma
T-47D breast = test system: T-47D breast
SR leukemia = test system: SR leukemia
SF-268 CNS = test system: SF-268 CNS
HCT-116 colon = test system: HCT-116 colon
BT-549 breast = test system: BT-549 breast
TK-10 renal = test system: TK-10 renal
HT29 colon = test system: HT29 colon
OVCAR-4 ovarian = test system: OVCAR-4 ovarian
MDA-MB-435 melanoma = test system: MDA-MB-435 melanoma
MDA-MB-468 breast = test system: MDA-MB-468 breast
K-562 leukemia = test system: K-562 leukemia
SF-295 CNS = test system: SF-295 CNS
LOX IMVI melanoma = test system: LOX IMVI melanoma
HCT-15 colon = test system: HCT-15 colon
UACC-257 melanoma = test system: UACC-257 melanoma
CAKI-1 renal = test system: CAKI-1 renal
NCI-H522 lung = test system: NCI-H522 lung
ACHN renal = test system: ACHN renal
NCI/ADR-RES ovarian = test system: NCI/ADR-RES ovarian
OVCAR-3 ovarian = test system: OVCAR-3 ovarian
SNB-19 CNS = test system: SNB-19 CNS
RXF 393 renal = test system: RXF 393 renal
A498 renal = test system: A498 renal

Cc1ccc(NS(=O)(=O)c2cccc(C#N)c2)c2[nH]cc(C#N)c12
GI50 (HOP-92 NSCLC): 19.9 µM | TGI (HOP-92 NSCLC): 54.6 µM | GI50 (SNB-75 CNS): 29.9 µM | TGI (SNB-75 CNS): > 100 µM | GI50 (CCRF-CEM leukemia): 15.1 µM | TGI (CCRF-CEM leukemia): 43.3 µM | GI50 (NCI-H226 lung): 12.4 µM | TGI (NCI-H226 lung): 70.6 µM | GI50 (HOP-62 NSCLC): 12.2 µM | TGI (HOP-62 NSCLC): > 100 µM | GI50 (RPMI-8226 leukemia): 14.5 µM | TGI (RPMI-8226 leukemia): 47.7 µM | GI50 (HL-60(TB) leukemia): 12 µM | TGI (HL-60(TB) leukemia): 26 µM | GI50 (SK-OV-3 ovarian): 6.53 µM | TGI (SK-OV-3 ovarian): > 100 µM | GI50 ([…]-0 renal): 11.7 µM | TGI (786-0 renal): > 100 µM | GI50 (UO-31 renal): 17.8 µM | TGI (UO-31 renal): 53.9 µM | GI50 (UACC-62 melanoma): 0.777 µM | TGI (UACC-62 melanoma): 28 µM | GI50 (NCI-H23 lung): 20 µM | TGI (NCI-H23 lung): 43.9 µM | GI50 (SW-620 colon): 14.7 µM | TGI (SW-620 colon): > 100 µM | GI50 (HS 578T breast): 16.2 µM | TGI (HS 578T breast): 65.6 µM | GI50 (MOLT-4 leukemia): 0.66 µM | TGI (MOLT-4 leukemia): 13.6 µM | GI50 (SK-MEL-2 melanoma): 33.3 µM | TGI (SK-MEL-2 melanoma): 60 µM | GI50 (A549 NSCLC): 15.1 µM | TGI (A549 NSCLC): > 100 µM | GI50 (SN12C renal): 27.7 µM | TGI (SN12C renal): > 100 µM | GI50 (KM12 colon): 27.1 µM | TGI (KM12 colon): > 100 µM | GI50 (DU-145 prostate): 4.29 µM | TGI (DU-145 prostate): > 100 µM | GI50 (SK-MEL-28 melanoma): 32.9 µM | TGI (SK-MEL-28 melanoma): 95.9 µM | GI50 (SF-539 CNS): 37.5 µM | TGI (SF-539 CNS): > 100 µM | GI50 (U251 glioblastoma): 16.9 µM | TGI (U251 glioblastoma): > 100 µM | GI50 (NCI-H460 NSCLC): 17.6 µM | TGI (NCI-H460 NSCLC): > 100 µM | GI50 (M14 melanoma): 26.5 µM | TGI (M14 melanoma): > 100 µM | GI50 (MCF7 breast): 11 µM | TGI (MCF7 breast): > 100 µM | GI50 (NCI-H322M lung): 39.4 µM | TGI (NCI-H322M lung): > 100 µM | GI50 (IGROV1 ovarian): 0.247 µM | TGI (IGROV1 ovarian): > 100 µM | GI50 (EKVX NSCLC): 28.7 µM | TGI (EKVX NSCLC): 83.9 µM | GI50 (MALME-3M melanoma): 61.7 µM | TGI (MALME-3M melanoma): > 100 µM | GI50 (MDA-MB-231 breast): 14.7 µM | TGI (MDA-MB-231 breast): > 100 µM | GI50 (HCC-2998 colon): 24 µM | TGI (HCC-2998 colon): > 100 µM | GI50 (PC-3 prostate): 1.44 µM | TGI (PC-3 prostate): > 100 µM | GI50 (OVCAR-5 ovarian): 31.1 µM | TGI (OVCAR-5 ovarian): > 100 µM | GI50 (COLO 205 colon): 10.5 µM | TGI (COLO 205 colon): > 100 µM | GI50 (SK-MEL-5 melanoma): 15.7 µM | TGI (SK-MEL-5 melanoma): 38 µM | GI50 (T-47D breast): 23.1 µM | TGI (T-47D breast): 79.2 µM | GI50 (SR leukemia): 0.155 µM | TGI (SR leukemia): 0.799 µM | GI50 (SF-268 CNS): 37.4 µM | TGI (SF-268 CNS): > 100 µM | GI50 (HCT-116 colon): 0.246 µM | TGI (HCT-116 colon): > 100 µM | GI50 (BT-549 breast): 24.9 µM | TGI (BT-549 breast): 57.6 µM | GI50 (TK-10 renal): 5.02 µM | TGI (TK-10 renal): > 100 µM | GI50 (HT29 colon): 47.2 µM | TGI (HT29 colon): > 100 µM | GI50 (OVCAR-4 ovarian): 18.2 µM | TGI (OVCAR-4 ovarian): > 100 µM | GI50 (MDA-MB-435 melanoma): 10.6 µM | TGI (MDA-MB-435 melanoma): 44.5 µM | GI50 (MDA-MB-468 breast): 0.165 µM | TGI (MDA-MB-468 breast): 0.629 µM | GI50 (K-562 leukemia): 0.525 µM | TGI (K-562 leukemia): > 100 µM | GI50 (SF-295 CNS): 7.23 µM | TGI (SF-295 CNS): 42.1 µM | GI50 (LOX IMVI melanoma): 32.1 µM | TGI (LOX IMVI melanoma): > 100 µM | GI50 (HCT-15 colon): 10.3 µM | TGI (HCT-15 colon): > 100 µM | GI50 (UACC-257 melanoma): 48.6 µM | TGI (UACC-257 melanoma): > 100 µM | GI50 (CAKI-1 renal): 18 µM | TGI (CAKI-1 renal): > 100 µM | GI50 (NCI-H522 lung): 0.292 µM | TGI (NCI-H522 lung): 15.3 µM | GI50 (ACHN renal): 10.4 µM | TGI (ACHN renal): > 100 µM | GI50 (NCI/ADR-RES ovarian): 1.24 µM | TGI (NCI/ADR-RES ovarian): > 100 µM | GI50 (OVCAR-3 ovarian): 22.2 µM | TGI (OVCAR-3 ovarian): 87.6 µM | GI50 (SNB-19 CNS): 20.2 µM | TGI (SNB-19 CNS): > 100 µM | GI50 (RXF 393 renal): 15.6 µM | TGI (RXF 393 renal): 52.7 µM | GI50 (A498 renal): 19.7 µM | TGI (A498 renal): > 100 µM
